Results: patent US20090176776A1, “SMALL MOLECULE INHIBITORS OF HIV-1 CAPSID ASSEMBLY” (UNIVERSITY OF ALABAMA AT BIRMINGHAM, priority 2005, published 2009)

Tests used:
Luc-M7 cells = experiment: Cell viability of Luc-M7 cells (Cell-Titer Glo); assay type: cell-based; set-up: unit: μM; conditions: mock-infected Luc-M7 cells, 6 days
Method: Anti-HIV Assays (Multiple Round). The inhibitory effects of the tested compounds on HIV-1YU2 replication were determined by the level of luciferase expression after 6 days of infection using Bright-Glo assay (Promega). An amount of 1.5×10^4 Luc-M7 (a gift from Ned Landau) cells per ml were infected with HIV-1YU2 at a multiplicity of infection (MOI) of 3. The HIV-1 infected ([…] compound) or mock-infected (0-300 μM compound) Luc-M7 cells were placed in 96-well culture plates (100 μl/well) with 100 μl of various concentrations of the compounds with 20 μg/ml DEAE Dextran in triplicate and incubated at 37° C. under 5% CO2 at 100% humidity. After 6 days, cell viability was quantified by Cell-Titer Glo assay (Promega). […] On day 5 cell viability was determined in the mock-infected cells. FIGS. 12-18 show the anti-HIV assays for the examples of chemical compounds used according to the invention. After in-vitro assay, the chemical compounds in FIGS. 12-18 were selected for screening for cell viability and toxicity. Jurkat cells assay was used as screening assay. […] After five days, GFP expression was read. Cell viability was monitored with Alamar Blue assay. Luc M7 assay was designed to measure inhibitory activity of the chemical compounds to viral replication. After infection of cells with YU2 virus, plate cells in 96-well plate in the presence of six concentration of compounds in DMSO. At day 6, the number of cells in wells were read with Cell Titer Glo kit or by counting the number of cells infected with Bright Glo kit. 293T cells assay was designed to determine the toxicity. 293T cells were transfected with NL43. After four hours, transfected cells were plated in 96-well plate in DMSO and 2 μM Indinavir. 72 hours later, viral supernatant was collected and plated on J[…].

[1] = target: T1, recombinant HIV-1 capsid protein (CA) (Human immunodeficiency virus type 1 group M subtype B, UniProt P12493); experiment: Turbidity based HIV-1 capsid assembly assay; assay type: biochemical; conditions: initial assembly rate by turbidity; twofold dilutions over a 128 fold range; 30 μM CA, 2.25 M NaCl
T1 construct: recombinant HIV-1 capsid protein (CA); made in house
Method: The kinetics can be followed by monitoring the increase of turbidity using a spectrophotometer. The IC50 of the chemical compound tested is determined by titration. As the C-domain inhibits capsid assembly by forming CA-C-domain heterodimers, the effect of added C-terminal domain on the rate of assembly was evaluated by plotting the rate of assembly versus C-terminal domain concentration.
Soluble HIV-1 capsid protein can be triggered to assemble into tubes similar in diameter and morphology to intact cores by dilution into high iconic strength buffer. The kinetics of assembly can be followed by monitoring the increase in turbidity using a spectrophotometer (Lanham et al., J. Virol., 76:6900, 2002). This assembly assay was adapted to a 96-well, microplate format to allow for medium-throughput screening of compounds by measuring turbidity in a Nepeloskan Ascent plate reader (Thermo Electron Corp., UK). A DIVERSet™ library of 10,000 low molecular weight, “drug-like” compounds was purchased from ChemBridge Corp. (San Diego, Calif.). This library was selected for its potential bioavailability and application based on a pharmacophore diversity analysis. The average molecular weight of the compounds is 347 g/mol, the range being 200-596 g/mol. The compounds came plated in 96-well plates and solubilized in DMSO at 5 mgs/mL.
Turbidity based assay. A 1.5 μL aliquot of compound was diluted 90-fold into 50 mM Na2HPO4, […] buffer, pH 8 in an optically clear 96-well plate. The plate containing compounds and salt was read to check for compound solubility and to serve as a background reading for the assay. To initiate the assembly reaction, 15 μL of […] stock (in 50 mM Na2HPO4 pH 8) of recombinant HIV-1 capsid protein (CA), purified as described (Lanman et al., J. Virol., 76:6900, 2002), was added to each well of the 96-well plate using a multi-channel pipettor. […] Furthermore, the halftime of the assembly reaction is ˜5 minutes so reading the plate in thirds prevented loss of initial rate data. Therefore, CA was added to the first 4 lanes, the reactions followed for ten minutes, reading was paused, CA was then added to the next four lanes and the process repeated. Instrument settings are as follows: PMT gain of 500 V, lamp at 10V, and integration time of 60 ms. The data were exported to a custom designed Excel spreadsheet that allowed simultaneous plotting of kinetic curves.
Recombinant CA protein was purified as previously described and stored at 300 μM at −80° C. A turbidity based assembly assay, described above, was adapted to a 96-well, microplate format to allow for medium-throughput screening of compounds in a Nepheloskan Ascent plate reader (Thermo Electron Corp., UK). A 1.5 μL aliquot of compound or DMSO was diluted 90-fold into 50 mM Na2HPO4, 2.25 M NaCl buffer, pH 8 in an optically clear 96-well plate. To initiate the assembly reaction, 15 μL of the 300 μM stock (in 50 mM Na2HPO4 pH 8) of recombinant HIV-1 capsid protein (CA), was added to each well of the 96-well plate using a multi-channel pipettor.

What does the source list for `Cc1ncc(C[n+]2csc(CCOC(=O)C3C4CC5CC(C4)CC3C5)c2C)c(N)n1.Cl.[Cl-]` (centres unmarked) [Compound 26]?
TC50 (Luc-M7 cells): 70.4; IC50 [1]: 28 µM
